Test results taken from patent US6599943B1, “Use of hydroxyguanidines” (WaPharm AB, priority 1996, dated 2003).

Tests used:
rat heart cytosol = assay: Hydroxyguanidine reducing activity of heart cytosol by radioligand binding assay; type: biochemical; conditions: 70 μM guanoxabenz, 1 hr at 25° C.
Protocol: Assay of hydroxyguanidine reducing activity by radioligand binding. The assay is based on the possibility to measure the affinity of ligands to α2-adrenoceptors by using radioligand binding. In a typical experiment small aliquots of the sample to be measured is added to an assay containing membranes rich in α2-adrenoceptors as well as a suitable concentration of a radioligand capable of binding to α2-adrenoceptors. After the assay mixture has been incubated for a suitable time, to achieve equilibrium, the amount of radioligand bound to the membranes is measured by washing and filtering on GF/C glass fibre filters using methods that are well described in literature, and which are commonly referred to as radioligand binding. The ability of the hydroxyguanidine and its product to inhibit the binding of the radioligand to the α2-adrenoceptor constituted a measure of the hydroxyguanidine/guanidine activity of the reaction mixture. A preferred hydroxyguanidine is one which corresponding guanidine show substantially different affinity compared to the hydroxyguanidine itself. A most preferred example of such a hydroxyguanidine is guanoxabenz.
In a more more exact version of the assay the “apparent affinity” of the mixture of hydroxyguanidine and guanidine-product is measured by constructing a complete competition curve for each sample to be measured. This is achieved by adding different dilutions of the reaction mixture to the radioligand binding assay. Since the sum of the concentration of the hydroxyguanidine and the guanidine product is known, the “apparent affinity” of the mixture can be calculated from the radioligand binding data using standard procedures for radioligand binding data analysis (Uhlén and Wikberg,1991). For the purpose of the present studies the apparent affinity of the reaction mixture was estimated from competition data by using a radioligand binding analysis computer software package (Wan System AB, Trillvägen 13, S-905 92 Umeå, Sweden). The fraction (q) of guanidine product obtained is then given by: [formula] […]

[1] = target: T1, bovine milk xanthine oxidase (Bos taurus, UniProt P80457); assay: Hydroxyguanidine reducing activity of bovine xanthine oxidase, simplified radioligand binding assay; type: biochemical; conditions: 100 μM xanthine versus xanthine absent
Protocol: (§1) In a simplified form of the assay the α2-adrenoceptor containing membranes and the [^3H]RX821002 radioligand were added together with the hydroxyguanidine reducing activity and the hydroxyguanidine, and the mixture then incubated for a suitable time. In this implementation of the assay the reduction of the hydroxyguanidine occurred simultaneously with the assay of the […]. Example of this variant of the assay is given in Examples 4 and 8.
(§2) Hydroxyguanidine reducing activity of bovine xanthine oxidase.
Target sequence in this assay (P80457 2-1332): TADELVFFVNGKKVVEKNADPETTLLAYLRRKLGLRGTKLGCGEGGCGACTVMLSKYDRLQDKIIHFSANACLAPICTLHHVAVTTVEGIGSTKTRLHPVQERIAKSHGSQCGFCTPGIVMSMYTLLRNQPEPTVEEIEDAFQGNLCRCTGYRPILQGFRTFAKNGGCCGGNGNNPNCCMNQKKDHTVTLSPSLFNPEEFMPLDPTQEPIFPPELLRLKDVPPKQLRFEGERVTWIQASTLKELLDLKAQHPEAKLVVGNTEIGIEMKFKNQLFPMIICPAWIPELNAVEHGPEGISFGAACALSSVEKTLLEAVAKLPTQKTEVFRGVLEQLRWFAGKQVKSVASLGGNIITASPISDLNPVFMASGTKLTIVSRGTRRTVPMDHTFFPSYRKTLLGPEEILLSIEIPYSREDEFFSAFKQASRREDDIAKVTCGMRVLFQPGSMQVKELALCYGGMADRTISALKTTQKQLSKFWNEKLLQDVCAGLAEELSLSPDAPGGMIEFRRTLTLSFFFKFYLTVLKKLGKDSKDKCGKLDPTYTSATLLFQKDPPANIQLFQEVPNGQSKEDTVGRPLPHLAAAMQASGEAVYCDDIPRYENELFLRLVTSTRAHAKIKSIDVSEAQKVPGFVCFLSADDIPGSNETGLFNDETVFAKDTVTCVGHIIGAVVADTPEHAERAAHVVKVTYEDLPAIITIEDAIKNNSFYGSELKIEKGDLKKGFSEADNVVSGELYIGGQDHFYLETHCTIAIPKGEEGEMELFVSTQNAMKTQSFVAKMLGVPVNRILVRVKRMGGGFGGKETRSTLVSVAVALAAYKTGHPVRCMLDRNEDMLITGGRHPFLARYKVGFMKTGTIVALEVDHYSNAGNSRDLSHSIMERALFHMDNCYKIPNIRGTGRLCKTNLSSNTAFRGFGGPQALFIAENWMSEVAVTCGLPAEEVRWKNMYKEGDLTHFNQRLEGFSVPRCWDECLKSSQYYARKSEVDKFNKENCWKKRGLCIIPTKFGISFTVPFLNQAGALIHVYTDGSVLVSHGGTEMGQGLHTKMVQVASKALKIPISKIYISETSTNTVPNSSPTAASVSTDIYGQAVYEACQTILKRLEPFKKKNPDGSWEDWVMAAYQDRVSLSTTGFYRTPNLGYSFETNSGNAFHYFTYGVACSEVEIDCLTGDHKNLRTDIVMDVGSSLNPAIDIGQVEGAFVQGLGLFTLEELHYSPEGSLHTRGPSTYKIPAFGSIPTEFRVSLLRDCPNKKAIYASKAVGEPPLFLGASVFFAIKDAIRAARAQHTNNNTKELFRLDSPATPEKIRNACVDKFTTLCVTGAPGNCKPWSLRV

[2] = test system: bovine milk xanthine oxidase; assay: as above; type: biochemical
Protocol: as §1, §2

[3] = target: T1, bovine milk xanthine oxidase
Target sequence in this assay (P80457 2-1332): as above
Protocol: Capacity of allopurinol to inhibit the reduction of hydroxyguanidines by xanthine oxidase. […] In these tests varying amounts of guanoxabenz was added to assays yielding 150 μl final volumes and containing final concentrations 0.004 units/ml of bovine milk xanthine oxidase (Sigma, St. Louis, MO., USA), 100 μM xanthine, 20 μM allopurinol, 50 pM α2-adrenoceptors (in HT29 cell membranes), 33 mM Tris HCl, 1 mM EDTA, pH 7.5, and incubating for 1 hour at 25° C.

[4] = target: T1, bovine milk xanthine oxidase; assay: Capacity to sustain oxidation of xanthine by xanthine oxidase in the absence of oxygen, spectrophotometric; type: biochemical; set-up: host or cells: bovine milk; conditions: 50 μM hydroxyguanidine, 50 μM xanthine, 0.05 units/ml xanthine oxidase, anaerobic, pH 7.5, 20° C., blank subtracted
Target sequence in this assay (P80457 whole entry): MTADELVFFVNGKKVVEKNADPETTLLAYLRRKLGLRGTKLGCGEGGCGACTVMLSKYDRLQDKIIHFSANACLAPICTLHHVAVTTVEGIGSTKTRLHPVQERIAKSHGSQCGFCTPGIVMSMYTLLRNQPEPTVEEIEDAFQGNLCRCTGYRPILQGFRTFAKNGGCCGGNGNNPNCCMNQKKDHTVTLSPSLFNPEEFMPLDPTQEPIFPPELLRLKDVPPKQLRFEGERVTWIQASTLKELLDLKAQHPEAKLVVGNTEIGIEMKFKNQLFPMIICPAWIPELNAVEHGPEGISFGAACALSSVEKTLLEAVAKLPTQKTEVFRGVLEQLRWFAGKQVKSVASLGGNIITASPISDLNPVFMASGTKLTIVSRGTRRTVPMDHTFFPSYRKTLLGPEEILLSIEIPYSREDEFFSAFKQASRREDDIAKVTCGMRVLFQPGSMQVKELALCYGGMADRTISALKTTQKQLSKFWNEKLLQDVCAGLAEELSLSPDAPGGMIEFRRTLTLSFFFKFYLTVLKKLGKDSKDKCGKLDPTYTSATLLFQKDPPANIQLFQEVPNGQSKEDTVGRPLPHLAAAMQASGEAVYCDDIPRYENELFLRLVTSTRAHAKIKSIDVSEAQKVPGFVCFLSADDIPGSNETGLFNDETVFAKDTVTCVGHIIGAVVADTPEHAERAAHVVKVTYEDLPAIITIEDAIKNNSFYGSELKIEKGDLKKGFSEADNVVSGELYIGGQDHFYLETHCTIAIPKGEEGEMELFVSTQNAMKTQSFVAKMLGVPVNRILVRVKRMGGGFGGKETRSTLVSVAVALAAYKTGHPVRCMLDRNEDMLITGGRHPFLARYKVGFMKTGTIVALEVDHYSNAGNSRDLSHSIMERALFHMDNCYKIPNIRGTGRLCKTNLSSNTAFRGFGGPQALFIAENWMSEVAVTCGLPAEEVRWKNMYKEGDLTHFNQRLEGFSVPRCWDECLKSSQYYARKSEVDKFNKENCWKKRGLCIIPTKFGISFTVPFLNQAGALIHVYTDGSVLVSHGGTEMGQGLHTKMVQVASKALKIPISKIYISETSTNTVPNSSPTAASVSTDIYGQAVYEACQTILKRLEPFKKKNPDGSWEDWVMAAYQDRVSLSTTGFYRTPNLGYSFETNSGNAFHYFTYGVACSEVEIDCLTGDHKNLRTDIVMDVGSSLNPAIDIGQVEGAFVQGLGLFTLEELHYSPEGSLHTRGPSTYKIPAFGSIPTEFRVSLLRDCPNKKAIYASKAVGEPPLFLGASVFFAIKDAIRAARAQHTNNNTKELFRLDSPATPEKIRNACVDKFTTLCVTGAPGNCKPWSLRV

- concentration of guanabenz in the sample (rat heart cytosol): 6.3 µM
- conversion of guanoxabenz to guanabenz (rat heart cytosol): 9%
- q (fraction of guanidine product) (rat heart cytosol): 0.09
- increase in the apparent affinity on addition of xanthine [1]: about 40 fold
- guanoxabenz converted to guanabenz ([2]; in the absence of xanthine): none
- conversion of guanoxabenz to guanabenz ([2]; in the presence of xanthine): about 88%
- conversion of guanoxabenz to guanabenz ([3]; in the absence of allopurinol): about 88%
- guanoxabenz converted to guanabenz ([3]; in the presence of allopurinol (20 μM)): none
- V = 1000 × (Δabs 295 nm) min^−1 (initial rate of the support of the oxidation of xanthine) [4]: 40 1000 × (Δabs 295 nm) min^−1
SMILES: N=C(NO)NN=Cc1c(Cl)cccc1Cl [Guanoxabenz, 2(2,6-dichlorophenyl)methylene-N-hydroxyhydrazine carboxi-imidamide]
